In article PMC9317670, “Temporal and Wash-Out Studies Identify Medicines for Malaria Venture Pathogen Box Compounds with Fast-Acting Activity against Both Trypanosoma cruzi and Trypanosoma brucei” (Microorganisms, 2022):

Tests used:
[1] = ref [8]; cited from earlier work
[2] = control drugs; ref DrugBank; cited from earlier work
T.b. rhodesiense STIB900 = T.b. rhodesiense STIB900 assay, 72 h; format: cell-based; conditions: Trypanosoma brucei, 72 h, read-out: IC50 T. bR (T.b. rhodesiense)

Nc1nc(N)nc(Nc2ccc([As]3SCC(CO)S3)cc2)n1 (stereo not shown) [Melarsoprol, reference compound]
Fatality among patients in which encephalopathy develops [1]: 50% | Post-treatment reactive encephalopathy, share of all treated cases [1]: 5–10% | LogP [2]: 1.3 | IC50 (T.b. rhodesiense STIB900): 15 ± 4 nM
